Ends that are not written are not given here.

Experiment [1] concerns VIT4-G9 cells. The experiment can be described thus: Effect of nicotinamide on prevalence of ILCC in VIT4-G9 cultures. The class given is cell-based, human. Conditions: 10 mM nicotinamide. The text has this:
A general principle of developmental cell biology is that cellular differentiation and growth are at least partially exclusive of each other. High rates of cellular proliferation usually occur in the absence of differentiation, while differentiation usually requires quiescence or low rates of cell proliferation. Initial observations of the clonal cell line VIT4-G9 were consistent with this concept since pancreatic hormone-containing ILCC only appeared at later stages of culture following slower cell growth as a consequence of confluence and possibly contact inhibition.

The test system of experiment [2] is VIT1 cells. Put plainly: IHC analysis of insulin or Ep-CAM positive cells in VIT1 culture exposed to nicotinamide. Conditions: 10 mM nicotinamide, 5-day exposure. The class given is cell-based, human.
The test system of experiment [3] is VIT4-G9 cells. The experiment can be described thus: Insulin secretion from VIT4-G9 cultures after growth/differentiation conditions. The class given is cell-based, human. On the procedure:
ILCC were examined to determine the level of insulin content and its secretion by use an immunoassay specific to human insulin (Linco Research, Catalog Number EZHI-14K). Since the growth medium contains recombinant human insulin, tissues were extensively washed with PBS prior to determination of secretion. ILCC were acutely maintained in a physiological saline solution (140 mM NaCl, 5 mM KCl, 5 mM CaCl2, 0.5% BSA, 1 mM sodium pyruvate, 2 mM glucose, and 10 mM HEPES, pH 7.4). […] The control solution contained 2 mM glucose, the elevated glucose solution was identical but contained 20 mM glucose, and the elevated K^+ solution contained 50 mM K^+, while the other constituents were identical to the control solution. The physiological saline solution was collected following centrifugation (10 minutes at 470×g) and frozen at −20° C. for later analysis. The remaining ILCC were lyzed in 10 mM Tris, 1 mM EDTA and 10% glycerol; the pellet was extracted overnight at 4° C. in 70% ethanol, 0.18 mM HCl and the extract was dried using Model DNA 110 Speed Vac (Savant, Inc.). The dried extract was reconstituted in 100 μl PBS prior to assay for insulin content. […] For example, glucose-stimulated insulin secretion requires expression of functional glucose transporter protein and glucokinase in addition to insulin. […]

The test system of experiment [4] is primary cultures of dispersed human pancreatic cells. The experiment can be described thus: Effect of HGF on ILCC growth and morphology in primary cultures. In kind it is cell-based. On the procedure: The effects of hepatocyte growth factor (HGF; PeproTech, Inc. Catalog Number 100-39) were determined by addition to the growth medium described above at a final concentration of 30 ng/ml. […] The acute effects of HGF on ILCC growth and morphology were determined and longer-term experiments were conducted as follows. The sample consisted of a cryopreserved, non-settled fraction of cells resulting from sub-culture of ILCC from the first passage of the culture of human pancreatic dispersed cells prepared as described above. The frozen cells were rapidly thawed, cryopreservative was washed out and the cells were plated at 10,000/cm^2 during the second passage. Cultures were exposed to 30 ng/ml HGF or control medium without added HGF and the cultures were expanded through 4 passages. Thereafter, both the control and HGF cultures were maintained and expanded through 8 passages using growth medium without added HGF. The number of ILCC in these cultures was determined by microscopic inspection.
To determine if ILCC cultures were affected by environmental conditions, the effect of HGF exposure was determined as described above (See: Methods). HGF is known to be mitogenic to beta cells, increases beta cell mass and total insulin production in vivo (Gracia-Ocana, et. al, 2000). HGF is also a known survival factor for a variety of cells (Dai, et. al, 2003). […]

In experiment [5] the test system is VIT1 cells. Put plainly: Induction of ILCC, insulin and Ep-CAM in VIT1 cells by GLP-1 (IHC). The class given is cell-based, human. On the procedure:
VIT1 cells were cultured and expanded through multiple passages as described in Example 2, “Cell Growth Analysis”. The culture medium used for expansion was VitroPlus II, (Vitro Diagnostics, Inc, Catalog Number VC03014) containing 10 nM GLP-1 (1-37) (Bachem, Catalog Number H-5552). Different cultures were expanded for 11 to 20 days encompassing two to five passages prior to immunohistochemical determination of insulin or Ep-CAM. A negative control culture that was expanded in VitroPlus II without added GLP-1 through 6 passages (24 days) prior to IHC determination of insulin. Insulin and Ep-CAM presence within these cultures was determined by fixation of the cultured cells in 1% glutaraldehyde, overnight incubation with insulin MAB (Sigma Chemical Co, Catalog Number I2018) at 1/1000 dilution in PBS or Ep-CAM, (Epithelial Specific Antigen) MAB (Biogenesis, Catalog Number 4240-4009) at 1/200 dilution in PBS followed by washout and incubation with an HRP-conjugated secondary antibody (Goat-anti-mouse-HRP (Jackson ImmunoResearch Laboratories, Inc., Catalog Number 115-035-062) at 37° C. for 30 minutes. Following washout of the secondary antibody, the fixed cells were then incubated for 15 minutes in diaminobenzidine (Sigma Chemical Co, Catalog Number D-4293), and the stained cultures were examined by phase-contrast microscopy and photographed. […]

In the case of `NC(=O)c1cccnc1` [nicotinamide], the “Increase in prevalence of ILCC” value in experiment [1] is listed as “about 5 fold”. For the same compound, the “Number of insulin or Ep-CAM positive cells by IHC” value in experiment [2] is recorded as “did not appear to change”. Moreover, the “Glucose-stimulated insulin secretion: requirement in differentiation phase” value in experiment [3] (10 mM nicotinamide in 0.5% FBS VitroPlus II, 6 days) is on record as “necessary”.

Take hepatocyte growth factor [HGF]: the “Increase in number of ILCC” value in experiment [4] (30 ng/ml HGF during passages 2 through 4, counted at early pass 7) is ~5 fold. Moreover, the “Morphology of ILCC” value in experiment [4] (30 ng/ml HGF, short time of exposure, reversed when HGF removed) was “shift in the morphology of ILCC from larger islets containing small cells to more loosely attached, smaller islets composed of larger cells”.

With “glucagon-like peptide 1 (HAEGTFTSDVSSYLEGQAAKEFIAWLVKGR; ends and bridges not checked; UniProt P01275 98-127, looked up) [GLP-1, GLP-1 (1-37) (Bachem, Catalog Number H-5552)]”, the “Ep-CAM expression by IHC” value in experiment [5] (10 nM GLP-1) is recorded as “induced”. Moreover, the “Reduction of ILCC frequency in negative control culture lacking GLP-1” value in experiment [5] (10 nM GLP-1 in VitroPlus II versus no GLP-1) is recorded as “thousand-fold”. For the same compound, the “Glucose-stimulated insulin secretion: requirement during growth phase” value in experiment [3] (GLP-1 in VitroPlus II, 5 days) is recorded as “necessary”.
